What was measured:
[1] = tested on: CCR-1, -3, -4, and -5 receptors on THP-1 cells; test: Competitive inhibition of 125I-RANTES binding to THP-1 cells; settings: for % Inhibition (4 ug/ml) of 125I-RANTES binding: 4 ug/ml compound
Procedure: The binding studies were conducted using I^125 labeled RANTES as competitor and THP-1 cell lines.

[2] = tested on: murine Experimental Allergic Encephalomyelitis (EAE); test: EAE mouse model of multiple sclerosis, clinical severity grading; format: in vivo; settings: 5, 20 and 40 mg/kg/day for 19 days, SJL/J mice, compared to control, FIG. 3
From the text: Experimental autoimmune encephalomyelitis (EAE) is a CD4^+ Th1-mediated inflammatory demyelinating disease of the central nervous system (CNS) that serves as a model for multiple sclerosis and other autoimmune diseases. It has previously been disclosed that RANTES regulates acute and relapsing autoimmune encephalomyelitis, and that RANTES production in the central nervous system is correlated with relapsing EAE development. In this example, the EAE mouse model (SJL/J mice) for MS is used, in which the disease is induced with Bordetella pertussis toxin (Claude C. A. et. al., (1975) Journal of Immunology 114(5): 1537-1540 and Hosseimi, H. et. al., (2000) Neurology 54 (7): A 166, An abstract presented in April 2000 on “Inhibition of proteosome prevents clinical signs in an experimental model of Multiple Sclerosis”).
Data for FIG. 3 was collected in an experiment involving five groups of 10 mice each, as follows: group I, normal control (no drug, no disease); group II, EAE control (MBP but no drug); group III, drug at 5 mg/kg body weight; group IV, drug at 20 mg/kg body weight; group V, drug at 40 mg/kg body weight. Three different concentrations of neoabietic acid were given to animals for 19 days: 5, 20, and 40 mg/kg/day in a volume of 100 ul Cremophore EL (Sigma). […]

[3] = tested on: RANTES-induced [Ca2+]i mobilization in THP-1 cells; test: Inhibition of RANTES-induced [Ca2+]i mobilization in THP-1 cells; format: cell-based
Procedure: A rapid, transient rise in the free cytosolic Ca^2+ concentration ([Ca^2+]i) is one of the events in neutrophil activation and is assumed to be involved in many of the subsequent cellular reactions. Both Ca^2+ release from intracellular stores and Ca^2+ influx from the extracellular space contribute to the rise in [Ca^2+]i. […] Fura-2,AM loaded THP-1 cells were incubated with CTCM189 for 60 min prior to induction of [Ca^2+]i mobilization by 10 nM RANTES.

SMILES | % Inhibition (4 ug/ml) of 125I-RANTES binding [1] [%] | IC50 ([1]; I125 labeled RANTES, THP-1 cells, data of FIG. 1, read-out: IC50, inhibition of binding of RANTES to THP-1 cells expressing CCR-1, -3, -4, and -5) [nM] | Effect on clinical scores in EAE [2] | IC50 ([3]; Homo sapiens, Fura-2,AM loaded THP-1 cells, 60 min preincubation, 10 nM RANTES) [nM] | Inhibition of RANTES-induced [Ca2+]i mobilization at 5 uM ([3]; THP-1 cells, 5 uM compound)
C=C[C@]1(C)C=C2CC[C@@H]3[C@](C)(CCC[C@@]3(C)C(=O)O)[C@H]2CC1 [B, Sandaraco-pimaric acid] | 36 |  |  |  | 
C=C[C@@]1(C)C=C2CC[C@@H]3[C@](C)(CCC[C@@]3(C)C(=O)O)[C@H]2CC1.N [C, Ammonium Pimarate] | 48 |  |  |  | 
CC(C)=C1C=C2CC[C@@H]3[C@](C)(CCC[C@@]3(C)C(=O)O)[C@H]2CC1 [Compound 1, 8(14), 13(15)-abietadien-18-oic-acid] | 68 | 253 | beneficial effect on the clinical scores | 27.2 | almost complete inhibition
